Measurements published in EP0676203A1, “Pharmaceutical compositions of antiglucocorticoid compounds for treating or preventing symptoms of spontaneous or narcotic-induced withdrawal” (ROUSSEL UCLAF, priority 1994, dated 1995).
Where “and” joins values, the source holds several entries; their conditions need not be identical. Identical values can stand only once.

What was measured:
[1] = system: souris dépendantes à la morphine; test: Naloxone-precipitated withdrawal syndrome (jumping) in morphine-treated mice, repeated 4-day oral treatment; assay type: in vivo
Excerpt: (§1) Les expériences ont été réalisées chez des souris mâles Swiss normales ou surrénalectomisées (Charles River, France) d'un poids corporel compris entre 20 et 25 g. Durant les essais, les animaux ont eu libre accès à la nourriture et à l'eau de boisson. Le nombre d'animaux par groupe est de 10 à 13 souris.
(§2) Les antiglucocorticoïdes : • AG1 (17β-hydroxy 11β-(4-diméthylaminophényl) 17α-(prop-1-ynyl) estra 4,9-dièn-3-one), • AG2 (17β-hydroxy 10β-[(4-méthylphényl) méthyl] 17α-(prop-1-ynyl) estra 4,9-dièn-3-one), • AG3 (γ-lactone de l'acide 17β-hydroxy 11β-(4-diméthylaminophényl) 21-méthylène 3-oxo 19-nor 17α-(pregna 4,9-dièn-21-carboxylique) • AG4 10β-benzyl 17β-hydroxy 17α-(prop-1-ynyl) estra 4,9(11)-dièn-3-one • AG5 11β-[4-(diméthylamino) phényl] 17α-hydroxy 17β-(3-hydroxypropyl) 13α-méthyl gona-4,9-dièn-3-one (onapristone) • AG6 11β-[4-(diméthylamino) phényl] 17β-hydroxy 17α-(3-hydroxy-1-propényl) estra-4,9-dièn-3-one (lilopristone) • AG7 17α-acétoxy 11β-[4-(diméthylamino) phényl] 19-nor pregna 4,9-dièn-3,20-dione • et l'antiprogestérone AP1 (17R 11β-[4-(méthylthio) phényl] spiro (estra-4,9-dièn-17,2'(5'H) furan) 3-one décrit dans WO 87/05908 ex. 3) ont été mis en suspension dans de la méthyl cellusose à 0,5 % et administrés par voie orale (p.o). La morphine a été mise en solution dans du sérum physiologique et administrée par voie sous-cutanée (s.c). Enfin, le chlorhydrate de naloxone a été solubilisé dans de l'eau distillée et injecté par voie intra-péritonéale.
Tous les produits ont été administrées à l'animal sous un volume de 25 ml/kg.
Le premier jour (J1), les animaux ont reçu 5 injections sous-cutanées avec des doses croissantes de morphine réparties dans la matinée et sur le début de l'après midi, à une heure d'intervalle. Les 3 jours suivants (J2, J3, J4), ces mêmes animaux ont été traités le matin par deux administrations de la dose maximale utilisée au jour 1.
Les antiglucocorticoïdes AG1, AG2, AG3, AG4 et AG5 ont été administrées à la dose de 100 mg/kg par voie orale sous forme d'un traitement quotidient effectué 2 heures avant l'administration de morphine et ceci durant 4 jours.
La technique utilisée s'inspire de celle décrite par Way et al. J. Pharmacol. Exp. Ther. (1969), 167 : 1-8 et Huidobro et Maggiolo Acta Physiol. Pharmacol. Latinoam. (1961), 11 : 201-9. Ainsi, l'administration réitérée d'un morphinique induit un phénomène de dépendance physique qui peut être facilement mis en évidence par la précipitation d'un syndrome de sevrage à l'aide d'un antagoniste opiacé tel que la naloxone. Ce syndrome se manifeste, chez la souris sous la forme d'un comportement stéréotypé caractérisé par l'apparition de sauts répétitifs dont le nombre est en relation avec la durée et l'intensité du traitement par le morphinique.
Le sevrage des animaux a été réalisé le quatrième jour; trois heures après le dernier traitement, à l'aide de chlorhydrate de naloxone injecté par voie intrapéritonéale à la dose de 100 mg/kg. Immédiatement après cette injection, les animaux ont été placés individuellement dans des cylindres en plexiglass (hauteur = 40 cm, diamètre = 20 cm). Le nombre de sauts consécutifs au sevrage et effectués par chaque animal a été compté durant une période de 10 minutes.
Les résultats qui figurent dans les tableaux représentent les moyennes des valeurs individuelles assorties de l'erreur standard à la moyenne (m ± esm).

[2] = system: souris dépendantes à la morphine; test: Naloxone-precipitated withdrawal syndrome (jumping) in morphine-treated mice, acute oral treatment 24 h before withdrawal; assay type: in vivo; conditions: result in words; 100 mg/kg p.o single dose 24 h before naloxone
Excerpt: as §1
as §2, with “Enfin, le chlorhydrate de naloxone a été solubilisé dans de l'eau distillée et injecté par voie intra-péritonéale.” left out

[3] = Morphine 799 mg/kg s.c (cumulated over 4 days) + compound 4 x 100 mg/kg p.o, naloxone 100 mg/kg ip, normal mice
[4] = compound alone, 4 x 100 mg/kg p.o, no morphine, naloxone 100 mg/kg ip on day 4, normal mice

| Structure (SMILES) | Nombre de sauts/10 minutes (m ± esm) [1, 3] [sauts/10 minutes] | Nombre de sauts/10 minutes (m ± esm) [1, 4] [sauts/10 minutes] | Nombre de sauts/10 minutes (m ± esm) ([1]; in vivo) | effet sur le syndrome de sevrage morphinique [2] |
| --- | --- | --- | --- | --- |
| CC#CC1(O)CCC2C3CCC4=CC(=O)CCC4(Cc4ccccc4)C3=CCC21C (stereo not drawn) [AG4, 10β-benzyl 17β-hydroxy 17α-(prop-1-ynyl) estra 4,9(11)-dièn-3-one] | 72 ± 7 | 1 ± 1 | – | – |
| CN1CC[C@]23c4c5ccc(O)c4O[C@H]2[C@@H](O)C=C[C@H]3[C@H]1C5 [Morphine, morphine, reference compound] | – | – | 115 ± 21 sauts/10 minutes and 97 ± 13 sauts/10 minutes and 117 ± 14 sauts/10 minutes and 103 ± 10 sauts/10 minutes | – |
| CC#C[C@]1(O)CC[C@H]2[C@@H]3CCC4=CC(=O)CCC4=C3[C@@H](c3ccc(N(C)C)cc3)C[C@@]21C [AG1, 17β-hydroxy 11β-(4-diméthylaminophényl) 17α-(prop-1-ynyl) estra 4,9-dièn-3-one] | 68 ± 12 | 0 | – | – |
| CC#CC1(O)CCC2C3CCC4=CC(=O)CCC4(Cc4ccc(C)cc4)C3=CCC21C (stereo not drawn) [AG2, 17β-hydroxy 10β-[(4-méthylphényl)méthyl] 17α-(prop-1-ynyl) estra 4,9-dièn-3-one] | 79 ± 9 | 0 | – | inactive |
| CSc1ccc([C@H]2C[C@@]3(C)[C@@H](CC[C@@]34C=CCO4)[C@@H]3CCC4=CC(=O)CCC4=C32)cc1 [AP1, 17R 11β-[4-(méthylthio)phényl] spiro (estra-4,9-dièn-17,2'(5'H)furan) 3-one, reference compound] | – | – | – | n'a pas modifié de façon significative |
| CN(C)c1ccc([C@H]2C[C@]3(C)[C@@H](CC[C@]3(O)CCCO)[C@@H]3CCC4=CC(=O)CCC4=C32)cc1 [AG5, 11β-[4-(diméthylamino)phényl] 17α-hydroxy 17β-(3-hydroxypropyl) 13α-méthyl gona-4,9-dièn-3-one] | 68 ± 12 | 1 ± 1 | – | – |
| C=C1C[C@@]2(CC[C@H]3[C@@H]4CCC5=CC(=O)CCC5=C4[C@@H](c4ccc(N(C)C)cc4)C[C@@]32C)OC1=O [AG3] | 66 ± 7 | 3 ± 2 | – | – |
